Results on 10 compounds are retold here after patent publication US20250092039A1, “GLUTARIMIDE-CONTAINING PAN-KRAS-MUTANT DEGRADER COMPOUNDS AND USES THEREOF” (Tiger Biotherapeutics Inc., priority 2022, published 2025).

The target in assay [1] is KRAS G12V (Homo sapiens (Human), UniProt P01116, G12V). Nature of the assay: KRAS G12V degradation in SW620 cells (Western blot, DC50). It counts as cell-based. Particulars: 24 hours. The method in brief: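 SW620 cells (homozygous KRAS G12V) were treated with compound for 24 hours at 37° C. KRAS in lysates was measured by Western blot with fluorescent secondary antibodies and expressed relative to DMSO vehicle (100%). DC50 came from a four-parameter variable-slope dose-response fit.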
KRAS G12V, sequence (P01116-2 other isoform, or with tags, fused parts or gaps G12V): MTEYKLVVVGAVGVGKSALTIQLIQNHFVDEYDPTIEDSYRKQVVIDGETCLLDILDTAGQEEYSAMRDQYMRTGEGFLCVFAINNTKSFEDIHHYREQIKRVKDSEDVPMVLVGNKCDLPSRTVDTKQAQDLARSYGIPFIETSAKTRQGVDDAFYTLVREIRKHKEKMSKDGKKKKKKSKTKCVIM

Assay [2] has as its target KRAS-G12V/RAF1 (Homo sapiens (Human), UniProt P01116, G12V). Nature of the assay: KRAS/RAF1 binding inhibition assay (AlphaScreen). The method in brief:
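Binding of GppNHp-loaded KRAS G12V to the RAF1 RBD was measured by AlphaScreen with test compound present in 2% DMSO (final), 60 min incubation at 4° C. Signals were converted to % inhibition versus DMSO, and IC50 was obtained by variable-slope nonlinear regression.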

Assay [3] deals with SW620 cells. The assay is described as follows: 3D cell growth inhibition of SW620 cells carrying endogenous KRAS G12V mutation (CellTiter-Glo 3D, GI50). It counts as cell-based. The following applies: Homo sapiens, SW-620, 144 h; SW620 cells, 6 days; read-out: SW620 3D cell growth GI50. The method in brief:
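SW620 cells (endogenous KRAS G12V) grown in 3D were dosed next day with compound from DMSO stocks at various concentrations, then incubated 6 days at 37° C.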

KRAS-G12V/RAF1, sequence (P01116-2 other isoform, or with tags, fused parts or gaps G12V): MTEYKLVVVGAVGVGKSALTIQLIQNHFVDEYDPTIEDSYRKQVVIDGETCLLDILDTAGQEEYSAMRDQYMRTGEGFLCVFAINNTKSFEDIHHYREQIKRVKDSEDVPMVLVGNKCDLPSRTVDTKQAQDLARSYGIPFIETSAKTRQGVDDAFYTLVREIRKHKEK

Consider `CCc1cccc2cc(O)cc(-c3ncc4c(N5CCC[C@@](C)(O)C5)nc(OCC5(CN6CCC(OC7CC8(CCN(c9ccc%10c(c9)CN(C9CCC(=O)NC9=O)C%10=O)CC8)C7)CC6)CC5)nc4c3F)c12` (stereo partly drawn) [Compound 181, 3-(5-(2-((1-((1-(((7-(8-ethyl-3-hydroxynaphthalen-1-yl)-8-fluoro-4-((R)-3-hydroxy-3-methylpiperidin-1-yl)pyrido[4,3-d]pyrimidin-2-yl)oxy)methyl)cyclopropyl)methyl)piperidin-4-yl)oxy)-7-azaspiro[3.5]nonan-7-yl)-1-oxoisoindolin-2-yl)piperidine-2,6-dione], for which the DC50 in assay [1] was < 0.001 µM. Besides, the IC50 in assay [2] is > 0.2 µM. For the same compound, the GI50 in assay [3] is < 0.01 µM.
The like results for `CCc1c(F)ccc2cc(O)cc(-c3ncc4c(N5CCC=CCC5)nc(OCC5(CN6CCC7(CC6)CC(CN6CCN(c8ccc9c(c8)CN([C@H]8CCC(=O)NC8=O)C9=O)CC6)C7)CC5)nc4c3F)c12` [Compound 4, (S)-3-(5-(4-((7-((1-(((7-(8-ethyl-7-fluoro-3-hydroxynaphthalen-1-yl)-8-fluoro-4-(2,3,6,7-tetrahydro-1H-azepin-1-yl)pyrido[4,3-d]pyrimidin-2-yl)oxy)methyl)cyclopropyl)methyl)-7-azaspiro[3.5]nonan-2-yl)methyl)piperazin-1-yl)-1-oxoisoindolin-2-yl)piperidine-2,6-dione] were, in that order, > 0.1 µM, > 0.2 µM and > 0.1 µM.
The like results for `CCc1cccc2cc(O)cc(-c3ncc4c(N5CCC[C@@](C)(O)C5)nc(OCC5(CN6CCC(N7CC8(CCN(c9ccc%10c(c9)CN([C@H]9CCC(=O)NC9=O)C%10=O)CC8)C7)CC6)CC5)nc4c3F)c12` [Compound 30, (S)-3-(5-(2-(1-((1-(((7-(8-ethyl-3-hydroxynaphthalen-1-yl)-8-fluoro-4-((R)-3-hydroxy-3-methylpiperidin-1-yl)pyrido[4,3-d]pyrimidin-2-yl)oxy)methyl)cyclopropyl)methyl)piperidin-4-yl)-2,7-diazaspiro[3.5]nonan-7-yl)-1-oxoisoindolin-2-yl)piperidine-2,6-dione] were, in that order, 0.001 to 0.01 µM, < 0.02 µM and < 0.01 µM.
The like results for `CCc1c(F)ccc2cc(O)cc(-c3ncc4c(N5CCC[C@@](C)(O)C5)nc(OCC5(CN6CCC7(CC6)CC(F)(CN6CCN(c8ccc(C(=O)N[C@H]9CCC(=O)NC9=O)c(F)c8)CC6)C7)CC5)nc4c3F)c12` [Compound 180, N-((S)-2,6-dioxopiperidin-3-yl)-4-(4-((7-((1-(((7-(8-ethyl-7-fluoro-3-hydroxynaphthalen-1-yl)-8-fluoro-4-((R)-3-hydroxy-3-methylpiperidin-1-yl)pyrido[4,3-d]pyrimidin-2-yl)oxy)methyl)cyclopropyl)methyl)-2-fluoro-7-azaspiro[3.5]nonan-2-yl)methyl)piperazin-1-yl)-2-fluorobenzamide] were, in that order, > 0.1 µM, 0.02 to 0.2 µM and 0.01 to 0.1 µM.
For `CCc1c(F)ccc2cc(O)cc(-c3ncc4c(N5CCC[C@@](C)(O)C5)nc(OCC5(CN6CCC7(CC6)CC(OC6CCN(c8ccc9c(c8)CN(C8CCC(=O)NC8=O)C9=O)CC6)C7)CC5)nc4c3F)c12` (stereo partly drawn) [Compound 176, 3-(5-(4-((7-((1-(((7-(8-ethyl-7-fluoro-3-hydroxynaphthalen-1-yl)-8-fluoro-4-((R)-3-hydroxy-3-methylpiperidin-1-yl)pyrido[4,3-d]pyrimidin-2-yl)oxy)methyl)cyclopropyl)methyl)-7-azaspiro[3.5]nonan-2-yl)oxy)piperidin-1-yl)-1-oxoisoindolin-2-yl)piperidine-2,6-dione], in assay [1], the DC50 was < 0.001 µM. Also, in assay [2], the IC50 was 0.02 to 0.2 µM. For the same compound, the GI50 in assay [3] is < 0.01 µM.
The like results for `CCc1c(F)ccc2cc(O)cc(-c3ncc4c(N5CCC[C@@](C)(O)C5)nc(OCC5(CN6CC7(CCC(F)(CN8CCN(c9ccc(C(=O)N[C@H]%10CCC(=O)NC%10=O)c(F)c9)CC8)CC7)C6)CC5)nc4c3F)c12` [Compound 183, N-((S)-2,6-dioxopiperidin-3-yl)-4-(4-((2-((1-(((7-(8-ethyl-7-fluoro-3-hydroxynaphthalen-1-yl)-8-fluoro-4-((R)-3-hydroxy-3-methylpiperidin-1-yl)pyrido[4,3-d]pyrimidin-2-yl)oxy)methyl)cyclopropyl)methyl)-7-fluoro-2-azaspiro[3.5]nonan-7-yl)methyl)piperazin-1-yl)-2-fluorobenzamide] were, in that order, > 0.1 µM, > 0.2 µM and 0.01 to 0.1 µM.
As to `CCc1c(F)ccc2cc(O)cc(-c3ncc4c(N5CCC[C@@](C)(O)C5)nc(OCC5(CN6CC(N7CCC8(CCN(c9ccc%10c(c9)CN(C9CCC(=O)NC9=O)C%10=O)CC8)CC7)C6)CC5)nc4c3F)c12` (stereo partly drawn) [Compound 153, 3-(5-(9-(1-((1-(((7-(8-ethyl-7-fluoro-3-hydroxynaphthalen-1-yl)-8-fluoro-4-((R)-3-hydroxy-3-methylpiperidin-1-yl)pyrido[4,3-d]pyrimidin-2-yl)oxy)methyl)cyclopropyl)methyl)azetidin-3-yl)-3,9-diazaspiro[5.5]undecan-3-yl)-1-oxoisoindolin-2-yl)piperidine-2,6-dione], the DC50 in assay [1] is < 0.001 µM. In assay [2], the IC50 lay in the range of 0.02 to 0.2 µM. The GI50 in assay [3] was < 0.01 µM.
For `CCc1cccc2cc(O)cc(-c3ncc4c(N5CCC[C@@](C)(O)C5)nc(OCC5(CN6CC(CN7CC8(CCN(c9ccc%10c(c9)CN(C9CCC(=O)NC9=O)C%10=O)CC8)C7)C6)CC5)nc4c3F)c12` (stereo partly drawn) [Compound 17, 3-(5-(2-((1-((1-(((7-(8-ethyl-3-hydroxynaphthalen-1-yl)-8-fluoro-4-((R)-3-hydroxy-3-methylpiperidin-1-yl)pyrido[4,3-d]pyrimidin-2-yl)oxy)methyl)cyclopropyl)methyl)azetidin-3-yl)methyl)-2,7-diazaspiro[3.5]nonan-7-yl)-1-oxoisoindolin-2-yl)piperidine-2,6-dione], in that order: > 0.1 µM, 0.02 to 0.2 µM and > 0.1 µM.
Take `C[C@@]1(O)CCCN(c2nc(OCC3(CN4CCC5(CC4)CC(CN4CCN(c6ccc7c(c6)CN([C@H]6CCC(=O)NC6=O)C7=O)CC4)C5)CC3)nc3c(F)c(-c4cc(N)cc(Cl)c4C(F)(F)F)ncc23)C1` [Compound 135, (S)-3-(5-(4-((7-((1-(((7-(5-amino-3-chloro-2-(trifluoromethyl)phenyl)-8-fluoro-4-((R)-3-hydroxy-3-methylpiperidin-1-yl)pyrido[4,3-d]pyrimidin-2-yl)oxy)methyl)cyclopropyl)methyl)-7-azaspiro[3.5]nonan-2-yl)methyl)piperazin-1-yl)-1-oxoisoindolin-2-yl)piperidine-2,6-dione]: in assay [1], the DC50 fell in the range of 0.001 to 0.01 µM. Moreover, the IC50 in assay [2] lay in the range of 0.02 to 0.2 µM. The GI50 in assay [3] was < 0.01 µM.
For `CCc1cccc2cc(O)cc(-c3ncc4c(N5CCC[C@@](C)(O)C5)nc(OCC5(CN6CCC(CN7CCN(c8ccc9c(c8)CN([C@H]8CCC(=O)NC8=O)C9=O)CC7)CC6)CC5)nc4c3F)c12` [Compound 6, (S)-3-(5-(4-((1-((1-(((7-(8-ethyl-3-hydroxynaphthalen-1-yl)-8-fluoro-4-((R)-3-hydroxy-3-methylpiperidin-1-yl)pyrido[4,3-d]pyrimidin-2-yl)oxy)methyl)cyclopropyl)methyl)piperidin-4-yl)methyl)piperazin-1-yl)-1-oxoisoindolin-2-yl)piperidine-2,6-dione], in that order: < 0.001 µM, 0.02 to 0.2 µM and < 0.01 µM.
